Reference: patent US20240400584A1, “COMPOUNDS AND METHODS FOR MODULATING SPLICING” (REMIX THERAPEUTICS INC., priority 2021, published 2024)

Columns and labels:
HTT = assay: RT-qPCR splicing assay, HTT AJ/CJ mRNA; type: cell-based, human; settings: Homo sapiens, 24 h, A673 or K562 cells; for IC50: decrease in canonical junction mRNA; for AC50: increase in alternative junction mRNA
Outline: (§1)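 HTT and MYB canonical (CJ) and alternative-exon (AJ) junction transcripts quantified by one-step RT-qPCR from lysates of A673 or K562 cells treated 24 h with 11-point 3-fold dilutions (top 10 uM, ≤0.25% DMSO). Ct normalized to GAPDH, GUSB or PPIA and DMSO control (2^−ΔΔCt), expressed as % response.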

MYB [1] = assay: RT-qPCR splicing assay, MYB AJ/CJ mRNA; type: cell-based; settings: Homo sapiens, A673 or K562 cells, 24 hours; for IC50: decrease in canonical junction mRNA; for AC50: increase in alternative junction mRNA
Outline: as §1

MYB [2] = assay: Gene panel canonical junction qPCR assay, MYB CJ mRNA (Table 7); type: cell-based; settings: Homo sapiens, read-out: MYB CJ mRNA decrease IC50
Outline: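 Treated K562 or A673 cells; measured CJ mRNA by cDNA synthesis and qPCR, 2^(−ΔΔCt) against housekeeper and DMSO. IC50 marks half-maximal CJ decrease.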

SMILES | IC50 (HTT) [nM] | AC50 (HTT) [nM] | IC50 (MYB [1]) [nM] | AC50 (MYB [1]) [nM] | IC50 (MYB [2]) [nM]
c1cnn(-c2ccc3c(c2)COc2nc(NC4CNC4)ccc2-3)c1 [Compound 166] | > 10000 | > 10000 | > 10000 | > 10000 | > 10000
CN(c1ccc2c(n1)OCc1cc(-c3cn[nH]c3)ccc1-2)C1CC(C)(C)NC(C)(C)C1 [Compound 147] | 100 to 1000 | 100 to 1000 | 1000 to 10000 | 1000 to 10000 | 1000 to 10000
Cc1cnc(-c2ccc3c(c2)COc2nc(N(C)[C@@H]4C[C@H]5CC[C@@H](C4)N5)ccc2-3)o1 [Compound 206] | 100 to 1000 | 100 to 1000 | 100 to 1000 | 1000 to 10000 | 100 to 1000
CN(c1ccc2c(n1)OCc1cc(-c3cnn(C)c(=O)c3)ccc1-2)[C@@H]1C[C@H]2CC[C@@H](C1)N2 [Compound 160] | < 100 | < 100 | 100 to 1000 | < 100 | 100 to 1000
COc1cc(-c2ccc3c(c2)COc2nc(N4CCC(N5CCCC5)C4)ccc2-3)cnn1 (stereo not drawn) [Compound 305] | 100 to 1000 | 100 to 1000 | 1000 to 10000 | 1000 to 10000 | 1000 to 10000
c1cc2c(cc1-c1cn[nH]c1)COc1nc(O[C@@H]3C[C@H]4CC[C@@H](C3)N4)ccc1-2 [Compound 218] | < 100 | < 100 | 100 to 1000 | 100 to 1000 | 100 to 1000
COc1cc(-c2ccc3c(c2)COc2nc(N4CCC(N(C)C5CCC5)C4)ccc2-3)cnn1 (stereo not drawn) [Compound 307, N-cyclobutyl-1-[8-(6-methoxypyridazin-4-yl)-6H-isochromeno[3,4-b]pyridin-3-yl]-N-methylpyrrolidin-3-amine] | 100 to 1000 | 100 to 1000 | 1000 to 10000 | 100 to 1000 | 1000 to 10000
CN(c1ccc2c(n1)OCc1cc(-c3cn[nH]c3)ccc1-2)C1CCNCC1 [Compound 116] | 100 to 1000 | 1000 to 10000 | 1000 to 10000 | 1000 to 10000 | 1000 to 10000
c1cc2c(cc1-c1cn[nH]c1)COc1nc(N[C@@H]3C[C@H]4CC[C@@H](C3)N4)cnc1-2 [Compound 143] | 100 to 1000 | 100 to 1000 | 100 to 1000 | 1000 to 10000 | 100 to 1000
COc1cc(-c2ccc3c(c2)COc2nc(N4CCC(NC5(C)CCC5)C4)ccc2-3)cnn1 (stereo not drawn) [Compound 285, 1-[8-(6-methoxypyridazin-4-yl)-6H-isochromeno[3,4-b]pyridin-3-yl]-N-(1-methylcyclobutyl)pyrrolidin-3-amine] | < 100 | 100 to 1000 | 100 to 1000 | 100 to 1000 | 100 to 1000
CC1(C)CC(Nc2ccc3c(n2)COc2cc(-n4cccn4)ccc2-3)CC(C)(C)N1 [Compound 134] | 1000 to 10000 | 1000 to 10000 | 1000 to 10000 | > 10000 | 1000 to 10000
Cc1[nH]ncc1-c1ccc2c(c1)COc1nc(N(C)[C@@H]3C[C@H]4CC[C@@H](C3)N4)ccc1-2 [Compound 154] | 100 to 1000 | 100 to 1000 | 100 to 1000 | < 100 | 100 to 1000
